US11213498B2, “Aqueous formulation comprising paracetamol and ibuprofen” (Hyloris Pharmaceuticals SA, priority 2014, dated 2022)
Like-named read-outs stand apart in the source and are kept apart here.

What was measured:
[1] = cited from earlier work
[2] = Amount of paracetamol at various points in time and different pH; assay type: physicochemical; details: pH range 6.3-7.3, various points in time
Source text: The amount of paracetamol was studied at varies points in time and for different pH's.

[3] = Dissolution of sodium ibuprofen 2H2O in the formulation Paracetamol - Ibuprofen at varying pH; assay type: physicochemical; details: in the formulation 3 mg/ml Paracetamol 10 mg/ml Ibuprofen
[4] = Dissolution of sodium ibuprofen 2H2O alone in water at gradually decreased pH (precipitation observed); assay type: physicochemical; details: for Dissolved: 3.85 mg/ml alone in water; for Dissolution: in water after 1 month storage at 25° C.
Method: Precipitation of ibuprofen is observed once pH is at 5.75. The Ibuprofen solutions were stored for 1 month at 25° C. They were again observed for signs of precipitation.

[5] = Dissolution of sodium ibuprofen 2H2O in the formulation Paracetamol - Ibuprofen at varying pH; assay type: physicochemical
Method: In a further experiment the dissolution of sodium ibuprofen 2H2O was studied in combination with paracetamol at a concentration of 10 mg paracetamol per liter.

**Q.** What does the source list for CC(C)Cc1ccc(C(C)C(=O)O)cc1 (stereo not drawn) [Ibuprofen, 2-(p-isobutylphenyl)propionic acid]?
**A.** Precipitation of ibuprofen ([1]; at pH 5.5 to 6.0): precipitates; Solubility in water [1]: very poorly soluble

**Q.** Which “pH at which rate of degradation of paracetamol is minimal” value ([1]; aqueous solution (Koshy et al., 1961)) does the source give for CC(=O)Nc1ccc(O)cc1 [paracetamol, N-(4-hydroxyphenyl)acetamide] here?
**A.** The value was roughly 6.

**Q.** And the Degradation of paracetamol ([1]; at pH 7)?
**A.** The Degradation of paracetamol was “significant”.

**Q.** What about the Degradation of paracetamol [2] of the same molecule?
**A.** Its Degradation of paracetamol is “minimal degradation”.

**Q.** Which Dissolved ([3]; pH 6.2) does the source give for CC(C)Cc1ccc(C(C)C(=O)O)cc1 (stereo not drawn) [sodium ibuprofen 2H2O] here?
**A.** The Dissolved was “Yes”.

**Q.** What about the Dissolved ([3]; pH 6.3) of the same molecule?
**A.** The Dissolved was “Yes”.

**Q.** And the Dissolved ([3]; pH 6.4)?
**A.** The Dissolved was “Yes”.

**Q.** What about the Dissolved ([3]; pH 6.6) of the same molecule?
**A.** The Dissolved was “Yes”.

**Q.** And the Dissolved ([3]; pH 7)?
**A.** Its Dissolved is “Yes”.

**Q.** And the Dissolved ([4]; pH 3)?
**A.** The Dissolved was “No”.

**Q.** What about the Dissolved ([4]; pH 4) of the same molecule?
**A.** Its Dissolved is “No”.

**Q.** And the Dissolved ([4]; pH 5)?
**A.** The Dissolved was “No”.

**Q.** What about the Dissolved ([4]; pH 5.5) of the same molecule?
**A.** The Dissolved was “No”.

**Q.** What about the Dissolved ([4]; pH 5.8) of the same molecule?
**A.** The Dissolved was “Yes”.

**Q.** What about the Dissolved ([4]; pH 6) of the same molecule?
**A.** Its Dissolved is “Yes”.

**Q.** And the Dissolved ([4]; pH 6.2)?
**A.** Its Dissolved is “Yes”.

**Q.** What about the Dissolved ([4]; pH 6.4) of the same molecule?
**A.** Its Dissolved is “Yes”.

**Q.** What about the Dissolved ([4]; pH 6.6) of the same molecule?
**A.** Its Dissolved is “Yes”.

**Q.** And the Dissolved ([4]; pH 6.8)?
**A.** The Dissolved was “Yes”.

**Q.** And the Dissolved ([4]; pH 7)?
**A.** The Dissolved was “Yes”.

**Q.** And the Dissolved ([4]; pH 7.5)?
**A.** Its Dissolved is “Yes”.

**Q.** What about the “pH at which precipitation of ibuprofen is observed” value ([4]; 3.85 mg/ml in water, pH gradually decreased from 8.80) of the same molecule?
**A.** The value was 5.75.

**Q.** What about the Dissolution ([4]; pH 5.8) of the same molecule?
**A.** Its Dissolution is “No”.

**Q.** What about the Dissolution ([4]; pH 6) of the same molecule?
**A.** Its Dissolution is “No”.

**Q.** And the Dissolution ([4]; pH 6.2)?
**A.** The Dissolution was “Yes”.

**Q.** And the Dissolution ([4]; pH 6.4)?
**A.** The Dissolution was “Yes”.

**Q.** What about the Dissolution ([4]; pH 6.6) of the same molecule?
**A.** Its Dissolution is “Yes”.

**Q.** What about the Dissolution ([4]; pH 6.8) of the same molecule?
**A.** Its Dissolution is “Yes”.

**Q.** What about the Dissolution ([4]; pH 7) of the same molecule?
**A.** Its Dissolution is “Yes”.

**Q.** What about the Dissolution ([4]; pH 7.5) of the same molecule?
**A.** Its Dissolution is “Yes”.

**Q.** And the Precipitation ([4]; solution at pH 6, stored for 1 month at 25° C.)?
**A.** The Precipitation was “showed precipitation”.

**Q.** What about the Precipitation ([4]; solution at pH 6.2, stored for 1 month at 25° C.) of the same molecule?
**A.** The Precipitation was “precipitation was absent”.

**Q.** And the Dissolution ([5]; 1 month storage at 25° C., pH 6.2)?
**A.** Its Dissolution is “No”.

**Q.** What about the Dissolution ([5]; 1 month storage at 25° C., pH 6.3) of the same molecule?
**A.** Its Dissolution is “Yes”.

**Q.** And the Dissolution ([5]; 1 month storage at 25° C., pH 6.4)?
**A.** The Dissolution was “Yes”.

**Q.** What about the Dissolution ([5]; 1 month storage at 25° C., pH 6.6) of the same molecule?
**A.** Its Dissolution is “Yes”.

**Q.** What about the Dissolution ([5]; 1 month storage at 25° C., pH 7) of the same molecule?
**A.** The Dissolution was “Yes”.

**Q.** And the Dissolution ([5]; 6 months, 25° C., pH 6.3)?
**A.** The Dissolution was “Yes”.

**Q.** What about the Dissolution ([5]; 6 months, 25° C., pH 6.4) of the same molecule?
**A.** The Dissolution was “Yes”.

**Q.** And the Dissolution ([5]; 6 months, 25° C., pH 6.6)?
**A.** Its Dissolution is “Yes”.

**Q.** What about the Dissolution ([5]; 6 months, 25° C., pH 7) of the same molecule?
**A.** The Dissolution was “Yes”.
